PubChem BioAssay AID1996
≈ marks a conversion by molar mass, not a printed value.

Conditions: buffer; pH 7.4; 200.0 µM

| Structure (SMILES) | solubility kinetic |
| --- | --- |
| Cc1ccccc1NC(=O)N1CCN(C/C=C/c2ccccc2)CC1 | > 50.3 µg/mL |
| Cc1sc2ncnc(SCC(=O)NC(C)(C)C)c2c1C | 19.3 µg/mL (≈ 62.4 µM) |
| O=C(Cc1ccc(Cl)cc1)Nc1cccnc1 | 23.3 µg/mL (≈ 94.4 µM) |
| Cc1nc2ccccc2c(=O)n1NC(=O)c1cccc(Cl)c1 | > 47.1 µg/mL |
| COc1ccc(Nc2nc(OC)nc(OC)n2)cc1 | > 39.3 µg/mL |
| CC1CN(CCC(=O)Nc2ccccc2F)CC(C)O1 (configuration not stated) | > 42.1 µg/mL |
| CCc1ccccc1NC(=O)c1ccc(OCc2c(C)noc2C)cc1 | 3.7 µg/mL (≈ 10.6 µM) |
| CC1(C)Cc2cccc(C(=O)NC3CCN(Cc4ccccc4)CC3)c2O1 | 53.2 µg/mL (≈ 146 µM) |
| Cc1ncc(CSc2ccc(Cl)cc2)c(CO)c1O | 14.1 µg/mL (≈ 47.7 µM) |
| CC(=O)Nc1ccc(OCc2cccc3ccccc23)cc1 | < 0.6 µg/mL |
| C=CCn1c(COc2ccccc2)nc2ccccc21 | 31.9 µg/mL (≈ 121 µM) |
| CN(C)S(=O)(=O)N1CCN(C(=O)c2ccc3c(c2)OCO3)CC1 | > 51.2 µg/mL |
| COc1ccccc1NC(=O)COc1cccc2c1CCNC2=O | 6.9 µg/mL (≈ 21.1 µM) |
| Cn1c(CO)cnc1S(=O)(=O)Cc1c(Cl)cccc1Cl | > 50.3 µg/mL |
| CCC(Sc1nc2ccccc2o1)C(=O)O (configuration not stated) | 35.2 µg/mL (≈ 148 µM) |
| CC1CCN(C(=O)C(C)Cl)CC1 (configuration not stated) | 11.1 µg/mL (≈ 58.5 µM) |
| N/C(=N\O)c1cn(Cc2ccccc2Cl)c2ccccc12 | 39.4 µg/mL (≈ 131 µM) |
| O=c1[nH]cnc2sc3c(c12)CCCCC3 | 19.9 µg/mL (≈ 90.3 µM) |
| CCOc1ccc(C(C)NC(=O)C2CCCC2)cc1 (configuration not stated) | > 39.2 µg/mL |
| COc1ccc(NC(=S)NC(=O)Cc2ccccc2)cc1 | 19.2 µg/mL (≈ 63.9 µM) |
| CCN(CC)c1ccc(NC(=O)CSC(=O)c2ccccc2)cc1.O=S(=O)(O)O | 4.1 µg/mL |
| O=C(NC1CCSC1=O)C1CC(=O)N(c2ccc(F)cc2)C1 (configuration not stated) | 46.2 µg/mL (≈ 143 µM) |
| O=c1[nH]c(/C=C\c2cccc(F)c2)nc(O)c1[N+](=O)[O-] | > 41.6 µg/mL |
| O=C(c1ncc[nH]1)c1ccccc1Cl | > 31 µg/mL |
| COc1cccc(NC(=O)c2c([N+](=O)[O-])cnn2C)c1 | > 41.4 µg/mL |

| Structure (SMILES) | solubility kinetic |
| --- | --- |
| CCOc1ccccc1NC(=O)CN1CCCCCC1.Cl | 32.9 µg/mL |
| CCCCNC(=S)Nc1ccc(C(F)(F)F)cc1 | 15.7 µg/mL (≈ 56.8 µM) |
| Cc1nc(N2CCCCC2)sc1C=O | > 31.5 µg/mL |
| COC(=O)c1ccc(NS(=O)(=O)c2ccc(S(=O)(=O)N3CCOCC3)cc2)cc1 | > 66.1 µg/mL |
| CC(=O)c1ccc(S(=O)(=O)NC2CC2)cc1 | 26.1 µg/mL (≈ 109 µM) |
| CCCCOc1cc(CC2CNC(=O)N2)ccc1OC (configuration not stated) | > 41.8 µg/mL |
| CC(=O)COC(=O)C1=NN(c2ccccc2)C(=O)CC1 | > 41.1 µg/mL |
| Cn1c(SCC(=O)NC2CCCCC2)nnc1-c1ccccc1F | > 52.3 µg/mL |
| CC(NS(=O)(=O)c1ccc2c(c1)CC(=O)N2C)c1ccccc1 (configuration not stated) | > 49.6 µg/mL |
| CCC1CCCCN1C(=O)CNCC1CCCO1.Cl (configuration not stated) | 27.4 µg/mL |
| COc1cccc(NC(=O)c2cnc[nH]2)c1 | 30.5 µg/mL (≈ 140 µM) |
| COC(=O)c1ccc(N2C(=O)C3CC(C)=C(C)CC3C2=O)cc1 (configuration not stated) | 18.3 µg/mL (≈ 58.4 µM) |
| Cn1c(CC(=O)NNC(=O)c2cccnc2)nc2ccccc21 | > 46.4 µg/mL |
| COc1ccc(C(=O)c2ccccc2)c(OCC(=O)NC2CC2)c1 | 31.5 µg/mL (≈ 96.8 µM) |
| CCC(CO)NCc1sccc1C (configuration not stated) | 26.6 µg/mL (≈ 133 µM) |
| CCCc1cc(C(=O)Nc2cccc([N+](=O)[O-])c2)cs1 | 1.7 µg/mL (≈ 5.86 µM) |
| CCn1c(SCC(=O)N2CCCC2)nc2c(c1=O)SCC2 | > 48.8 µg/mL |
| O=C(CCC(=O)N1CCCC1)N1CCCC1 | > 33.6 µg/mL |
| CCOC(=O)c1c(-c2ccccc2)oc2ccc(OCC(N)=O)cc12 | < 0.7 µg/mL |
| O=C(NCCCCc1ccccc1)Nc1cccc(F)c1 | 8.2 µg/mL (≈ 28.6 µM) |
| COc1c(O)cccc1/C=N/NC(=O)Cn1ccnc1C | > 43.2 µg/mL |
| CCOc1ncccc1C(=O)Nc1ccc2c(c1)OCCO2 | > 45 µg/mL |
| Cc1csc(NC(=O)Cc2c(F)cccc2Cl)n1 | 36.4 µg/mL (≈ 128 µM) |
| O=C1CC(c2cccs2)Cc2nc(NC(=O)C3CC3)ncc21 (configuration not stated) | 45.5 µg/mL (≈ 145 µM) |
| CC(=O)Oc1ccccc1C(=O)NC(C)CCc1ccccc1 (configuration not stated) | > 46.7 µg/mL |

| Structure (SMILES) | solubility kinetic |
| --- | --- |
| CN(n1cnc2ccccc2c1=O)S(C)(=O)=O | > 38 µg/mL |
| COc1cccc(NC(=S)N2CCC(Cc3ccccc3)CC2)c1 | 5.5 µg/mL (≈ 16.2 µM) |
| Oc1ccc(CNc2ccccc2)c2cccnc12 | 3.5 µg/mL (≈ 14 µM) |
| COc1ccc(NC(=O)CC2(CC(=O)O)CCCC2)cn1 | > 43.9 µg/mL |
| CCc1c(C(=O)NCCc2cccc(C)c2)[nH]c(C)c1C(C)=O | 5 µg/mL (≈ 16 µM) |
| COc1cc(Cl)c(C)cc1NC(=O)CC1CCCC1 | 2 µg/mL (≈ 7.1 µM) |
| CC(C)CC(=O)Nc1ccccc1N1CCN(c2ccccc2)CC1 | 1.6 µg/mL (≈ 4.74 µM) |
| COc1ccccc1C(=O)COC(=O)c1cnc(C)cn1 | > 42.9 µg/mL |
| CCc1cccc2c1NC(=O)C21OCCO1 | 27.5 µg/mL (≈ 125 µM) |
| COc1ccc(CC(=O)NCc2csc(-c3cccs3)n2)cc1OC | 54.6 µg/mL (≈ 146 µM) |
| CN(Cc1ccccc1)c1ccc(N2C(=O)CCC2=O)cc1[N+](=O)[O-] | 38.7 µg/mL (≈ 114 µM) |
| Cn1cccc1C(=O)NC(=O)COC(=O)CCNS(=O)(=O)c1ccc(Cl)cc1 | 13.8 µg/mL (≈ 32.3 µM) |
| Cc1ccccc1-c1nnc(SC(C)C(=O)NC2CCCC2)o1 (configuration not stated) | > 49.7 µg/mL |
| Nc1nc2nonc2nc1N | > 22.8 µg/mL |
| CC1CC(C)CN(C(=O)COC(=O)CN2C(=O)c3ccccc3C2=O)C1 (configuration not stated) | > 53.8 µg/mL |
| CN1CCN2c3ccccc3Cc3ccccc3C2C1.Cl (configuration not stated) | > 45.1 µg/mL |
| COc1ccccc1NS(=O)(=O)c1cccc(NS(=O)(=O)c2cc(C(=O)O)ccc2OC)c1 | > 73.9 µg/mL |
| O=C(Nc1nccs1)c1ccc(CSc2ccccc2)o1 | 1.6 µg/mL (≈ 5.06 µM) |
| NC(=O)COC(=O)C1CSC2(c3ccc(F)cc3)CCC(=O)N12 (configuration not stated) | 49.4 µg/mL (≈ 146 µM) |
| O=c1cc(Cl)[nH]c(=O)n1Cc1ccccc1 | > 35.5 µg/mL |
| CC(=O)Nc1ccc(N=c2cc([N+](=O)[O-])cc(Cl)n2O)cc1 | 29 µg/mL (≈ 89.9 µM) |
| Cc1ccc(NC(=O)c2cnccn2)c(C)c1 | 32.7 µg/mL (≈ 144 µM) |
| COc1ccccc1C(=O)OC1CCCN(C)C1.Cl (configuration not stated) | > 42.9 µg/mL |
| O=C(NC(=S)Nc1ccccc1N1CCCC1)c1ccco1 | 25.3 µg/mL (≈ 80.2 µM) |
| O=C(COC(=O)c1ccc(Br)c(S(=O)(=O)N2CCOCC2)c1)NC1CC1 | > 67.1 µg/mL |

| Structure (SMILES) | solubility kinetic |
| --- | --- |
| CSc1ncc(Cl)c(C(=O)Nc2ccc(C)c(C)c2)n1 | 0.7 µg/mL (≈ 2.27 µM) |
| CCc1ccc(C(=O)OCC(=O)NCC(F)(F)F)cc1 | 17.9 µg/mL (≈ 61.9 µM) |
| CC1CCCN(C(=O)COC(=O)COc2ccc(Cl)cc2)C1 (configuration not stated) | 20.2 µg/mL (≈ 62 µM) |
| O=[N+]([O-])c1cc(C(F)(F)F)ccc1NCCc1ccncc1 | 1.6 µg/mL (≈ 5.14 µM) |
| CNC(=O)COC(=O)/C=C/c1cccs1 | > 33.8 µg/mL |
| CC(OC(=O)c1ccc(C#N)cc1)C(=O)Nc1ccc(Cl)cn1 (configuration not stated) | 5.4 µg/mL (≈ 16.4 µM) |
| COc1ccc(C2Nc3ccccc3C(=O)N2NC(C)=O)cc1OC (configuration not stated) | > 51.2 µg/mL |
| COc1ccccc1NC(=O)CC(=O)c1cccc([N+](=O)[O-])c1 | 2.9 µg/mL (≈ 9.23 µM) |
| Cc1cc(C)cc(NC(=O)COC(=O)c2ccc3c(c2)OCCO3)c1 | 2.3 µg/mL (≈ 6.74 µM) |
| CC1(C)CC(=O)C=C(Nc2cccc(Cl)c2Cl)C1 | 37.3 µg/mL (≈ 131 µM) |
| O=C(Nc1nc2ccccc2s1)Nc1ccc(F)cc1F | < 0.2 µg/mL |
| N#Cc1ccccc1NC(=O)COC(=O)c1cccs1 | 4 µg/mL (≈ 14 µM) |
| C=CCC(C=C)[N+]1(CC(=O)OC)CCCCC1.[Br-] (configuration not stated) | > 47.7 µg/mL |
| O=C(O)c1ccccc1NS(=O)(=O)c1ccc2ccccc2c1 | > 49.1 µg/mL |
| Nc1nc(Cl)cc(Oc2ccccc2F)n1 | 15.6 µg/mL (≈ 65.1 µM) |
| CNC(=S)N(CCCn1ccnc1)Cc1c(F)cccc1Cl | 49 µg/mL (≈ 144 µM) |
| CCN1CCN(CCC(=O)Nc2ccccc2)CC1 | > 39.2 µg/mL |
| Cc1ccc2[nH]c3c(c2c1)CNCC3.Cl | 31.7 µg/mL |
| C=CCn1c(O)c(C(CC)=Nc2ccc(NC(C)=O)cc2)c(=O)[nH]c1=O | > 53.5 µg/mL |
| Cc1sc2ncnc(N[C@@H](Cc3ccccc3)C(=O)O)c2c1C | 46.8 µg/mL (≈ 143 µM) |
| O=C(CSc1ncccn1)NC1CCCc2ccccc21 (configuration not stated) | 42.5 µg/mL (≈ 142 µM) |
| N#Cc1ccccc1NC(=O)COC(=O)CN1C(=O)C2CCCCC2C1=O (configuration not stated) | > 55.4 µg/mL |
| Cc1ccc(S(=O)(=O)N(C)C)cc1NC(=O)C(C)OC(=O)c1cc[n+]([O-])cc1 (configuration not stated) | > 61.1 µg/mL |
| Cc1cc(Br)c(NC(=O)COC(=O)C2CCCCC2)c(Br)c1 | 10.1 µg/mL (≈ 23.3 µM) |
| O=C(Nc1ccccc1C(=O)N1CCCCC1)NC1CCCCC1 | > 49.4 µg/mL |

| Structure (SMILES) | solubility kinetic |
| --- | --- |
| COc1ccc(NC(=O)CN(C)C(=O)c2ccc3ccccc3n2)cc1 | > 52.4 µg/mL |
| c1ccc2c(-c3cncc4ccccc34)cncc2c1 | 32.1 µg/mL (≈ 125 µM) |
| CN(C)Cc1c(O)ccc2c(=O)c(-c3ccccc3Cl)coc12 | > 49.5 µg/mL |
| CCOc1ccc(C(=O)OC(C)CN2CCCCC2)cc1.Cl (configuration not stated) | > 49.2 µg/mL |
| O=C(CCS(=O)(=O)c1ccccc1)OCc1ccc([N+](=O)[O-])cc1 | 32 µg/mL (≈ 91.6 µM) |
| COc1cccc(NC(=O)Nc2ccc3c(c2)OCO3)c1 | 3.7 µg/mL (≈ 12.9 µM) |
| CCN(CC)S(=O)(=O)c1ccc2nc(CCl)[nH]c2c1 | > 45.3 µg/mL |
| CSc1cccc(NC(=O)COC(=O)c2ccccn2)c1 | > 45.4 µg/mL |
| COc1ccccc1NC(=O)c1ccc2c(=O)n3c(nc2c1)CCC3 | 13.2 µg/mL (≈ 39.4 µM) |
| O=C(O)CC(c1ccc(F)cc1F)N1Cc2ccccc2C1=O (configuration not stated) | > 47.6 µg/mL |
| O=S(=O)(NCc1cccs1)c1ccc(Br)cc1 | 11.6 µg/mL (≈ 34.9 µM) |
| O=C(CCC(=O)NC1CCCCC1)Nc1cccnc1 | > 41.3 µg/mL |
| O=S(=O)(c1cccc(C(F)(F)F)c1)N1CCN(c2cnccn2)CC1 | 25.1 µg/mL (≈ 67.4 µM) |
| COc1ccc(CCNC(=O)c2cc(Cl)nc3ccccc23)cc1 | 5.9 µg/mL (≈ 17.3 µM) |
| C=C(C)CNC(=S)NNC(=O)c1ccncc1 | > 37.5 µg/mL |
| CS(=O)(=O)N1CCN(c2nc3ccc(Cl)cc3s2)CC1 | < 0.2 µg/mL |
| CCN(C(=O)COC(=O)c1cc(OC)ccc1Br)C1CCS(=O)(=O)C1 (configuration not stated) | > 65.1 µg/mL |
| O=C(CSc1nnc2ccccn12)NC(=O)c1cccc([N+](=O)[O-])c1 | > 53.6 µg/mL |
| Cn1c(=O)c2ccccc2n(CC(=O)NCCC2=CCCCC2)c1=O | 14.6 µg/mL (≈ 42.8 µM) |
| Br.CCC1CC(CSC(=N)N)OC1=O (configuration not stated) | > 42.5 µg/mL |
| O=C(c1ccc2ccccc2n1)N1CCN(S(=O)(=O)c2ccc(Cl)cc2)CC1 | 27.4 µg/mL (≈ 65.9 µM) |
| O=C(Nc1ccc(S(=O)(=O)N2CCCCC2)cc1)C1CCCCC1 | 13.5 µg/mL (≈ 38.5 µM) |
